Among the data in patent publication US10736883B2, “Triazole furan compounds as agonists of the APJ receptor” (AMGEN INC., priority 2016, dated 2020) are EC50 values, retold here.

SMILES strings stand for the structures.

Broadly, the EC50 is the midpoint of the concentration-response curve.

APJ receptor, sequence (P35414 whole entry): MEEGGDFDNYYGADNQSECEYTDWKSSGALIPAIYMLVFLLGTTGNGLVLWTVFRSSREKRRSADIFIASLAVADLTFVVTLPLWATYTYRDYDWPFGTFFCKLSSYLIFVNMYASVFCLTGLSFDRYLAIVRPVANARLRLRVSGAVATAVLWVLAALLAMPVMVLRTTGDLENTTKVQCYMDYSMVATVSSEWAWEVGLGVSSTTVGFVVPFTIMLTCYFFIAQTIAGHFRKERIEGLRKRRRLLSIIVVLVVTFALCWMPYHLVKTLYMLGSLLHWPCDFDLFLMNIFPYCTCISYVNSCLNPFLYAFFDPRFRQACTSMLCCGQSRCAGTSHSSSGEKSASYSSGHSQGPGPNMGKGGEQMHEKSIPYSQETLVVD

The target of this experiment is APJ receptor (Homo sapiens (Human), UniProt P35414). In words: [35S]GTPγS binding assay on membranes from CHO cells stably expressing human APJ receptor. The following applies: membranes of CHO cells stably expressing human APJ receptor, means of several independent experiments, read-out: Activity hAPJ SPA EC50 IP. The class given is biochemical. Put shortly:
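EC50 values were obtained by non-linear regression of [35S]GTPγS (0.2 nM) binding after 90 min at RT, with nonspecific binding defined by 100 μM GTPγS. Reactions used human APJ–expressing CHO cell membranes on WGA PS beads in HEPES pH 7.5 buffer with 5 mM MgCl2, 200 mM NaCl, 3 μM GDP and 0.1% BSA.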
`COc1cccc(OC)c1-n1c(NS(=O)(=O)C[C@@H](C)c2ncc(F)cn2)nnc1-c1ccc(C)o1` (single isomer, unassigned) [Example 126.0, (S)—N-(4-(2,6-Dimethoxyphenyl)-5-(5-methylfuran-2-yl)-4H-1,2,4-triazol-3-yl)-2-(5-fluoropyrimidin-2-yl)propane-1-sulfonamide or (R)—N-(4-(2,6-dimethoxyphenyl)-5-(5-methylfuran-2-yl)-4H-1,2,4-triazol-3-yl)-2-(5-fluoropyrimidin-2-yl)propane-1-sulfonamide]: the EC50 came to 0.45 nM.

In the case of `CCO[C@H](c1ncc(C)cn1)[C@@H](C)S(=O)(=O)Nc1nnc(-c2ccc(C)o2)n1-c1c(OC)cccc1OC` (single isomer, unassigned) [Example 130.0, (1R,2R)-N-(4-(2,6-dimethoxyphenyl)-5-(5-methylfuran-2-yl)-4H-1,2,4-triazol-3-yl)-1-ethoxy-1-(5-methylpyrimidin-2-yl)propane-2-sulfonamide or (1S,2S)-N-(4-(2,6-dimethoxyphenyl)-5-(5-methylfuran-2-yl)-4H-1,2,4-triazol-3-yl)-1-ethoxy-1-(5-methylpyrimidin-2-yl)propane-2-sulfonamide], the EC50 was 3.5 nM.

As for `COc1cccc(OC)c1-n1c(NS(=O)(=O)[C@@H](C)[C@@H](OC)c2ncc(F)cn2)nnc1-c1ccc(C)o1` (single isomer, unassigned) [Example 132.0, (1S,2S)-N-(4-(2,6-dimethoxyphenyl)-5-(5-methylfuran-2-yl)-4H-1,2,4-triazol-3-yl)-1-(5-fluoropyrimidin-2-yl)-1-methoxypropane-2-sulfonamide or (1R,2R)-N-(4-(2,6-dimethoxyphenyl)-5-(5-methylfuran-2-yl)-4H-1,2,4-triazol-3-yl)-1-(5-fluoropyrimidin-2-yl)-1-methoxypropane-2-sulfonamide], the concentration giving a half-maximal response (EC50) was found to be 6.8 nM.

Consider `CC[C@H](Cc1ncc(F)cn1)S(=O)(=O)Nc1nnc(-c2ccc(C)o2)n1-c1c(OC)cccc1OC` (single isomer, unassigned) [Example 134.0, (R)—N-(4-(2,6-dimethoxyphenyl)-5-(5-methylfuran-2-yl)-4H-1,2,4-triazol-3-yl)-1-(5-fluoropyrimidin-2-yl)butane-2-sulfonamide or (S)—N-(4-(2,6-dimethoxyphenyl)-5-(5-methylfuran-2-yl)-4H-1,2,4-triazol-3-yl)-1-(5-fluoropyrimidin-2-yl)butane-2-sulfonamide], for which the EC50 was 10 nM.

Consider `CC[C@H](Cc1ncc(F)cn1)S(=O)(=O)Nc1nnc(-c2ccco2)n1-c1c(OC)cccc1OC` (single isomer, unassigned) [Example 136.0, (R)—N-(4-(2,6-Dimethoxyphenyl)-5-(furan-2-yl)-4H-1,2,4-triazol-3-yl)-1-(5-fluoropyrimidin-2-yl)butane-2-sulfonamide or (S)—N-(4-(2,6-dimethoxyphenyl)-5-(furan-2-yl)-4H-1,2,4-triazol-3-yl)-1-(5-fluoropyrimidin-2-yl)butane-2-sulfonamide], for which the EC50 was found to be 19 nM.

Take `COc1cccc(OC)c1-n1c(NS(=O)(=O)[C@H](C)[C@@H](OC)c2ccc(C#N)cc2C#N)nnc1-c1ccc(C)o1` (single isomer, unassigned) [Example 143.0, (1S,2R)-1-(2,4-Dicyanophenyl)-N-(4-(2,6-dimethoxyphenyl)-5-(5-methyl-2-furanyl)-4H-1,2,4-triazol-3-yl)-1-methoxy-2-propanesulfonamide or (1R,2S)-1-(2,4-dicyanophenyl)-N-(4-(2,6-dimethoxyphenyl)-5-(5-methyl-2-furanyl)-4H-1,2,4-triazol-3-yl)-1-methoxy-2-propanesulfonamide]: the concentration giving a half-maximal response (EC50) came out at 0.072 nM.

Consider `COc1cccc(OC)c1-n1c(NS(=O)(=O)C[C@H](O)c2ccc(Cl)cc2S(C)(=O)=O)nnc1-c1ccc(C)o1` (single isomer, unassigned) [Example 144.0, (2R)-2-(4-Chloro-2-(methylsulfonyl)phenyl)-N-(4-(2,6-dimethoxyphenyl)-5-(5-methyl-2-furanyl)-4H-1,2,4-triazol-3-yl)-2-hydroxyethanesulfonamide or (2S)-2-(4-chloro-2-(methylsulfonyl)phenyl)-N-(4-(2,6-dimethoxyphenyl)-5-(5-methyl-2-furanyl)-4H-1,2,4-triazol-3-yl)-2-hydroxyethanesulfonamide], for which the concentration giving a half-maximal response (EC50) turned out to be 0.073 nM.

As for `COc1cnc([C@@H](O)[C@H](C)S(=O)(=O)Nc2nnc(-c3ccc(C)o3)n2-c2c(OC)cccc2OC)cn1` (single isomer, unassigned) [Example 146.0, (1R, 2S)—N-(4-(2,6-Dimethoxyphenyl)-5-(5-methyl-2-furanyl)-4H-1,2,4-triazol-3-yl)-1-hydroxy-1-(5-methoxy-2-pyrazinyl)-2-propanesulfonamide or (1S, 2R)—N-(4-(2,6-dimethoxyphenyl)-5-(5-methyl-2-furanyl)-4H-1,2,4-triazol-3-yl)-1-hydroxy-1-(5-methoxy-2-pyrazinyl)-2-propanesulfonamide], the EC50 is 0.13 nM.

For `COC[C@H]1CCCC(=O)N1C[C@@H](C)S(=O)(=O)Nc1nnc(-c2ccc(C)o2)n1-c1c(OC)cccc1OC` (single isomer, unassigned) [Example 150.0], the EC50 came to 0.22 nM.

Take `COc1cccc(OC)c1-n1c(NS(=O)(=O)[C@@H](C)[C@@H](O)c2ccc(Cl)cc2S(C)(=O)=O)nnc1-c1ccc(C)o1` (single isomer, unassigned) [Example 153.0, (1R,2R)-1-(4-Chloro-2-(methylsulfonyl)phenyl)-N-(4-(2,6-dimethoxyphenyl)-5-(5-methyl-2-furanyl)-4H-1,2,4-triazol-3-yl)-1-hydroxy-2-propanesulfonamide or (1S,2S)-1-(4-chloro-2-(methylsulfonyl)phenyl)-N-(4-(2,6-dimethoxyphenyl)-5-(5-methyl-2-furanyl)-4H-1,2,4-triazol-3-yl)-1-hydroxy-2-propanesulfonamide]: the concentration for a half-maximal effect (EC50) amounted to 0.26 nM.

Consider `CCOC(=O)[C@@H]1C[C@H](S(=O)(=O)Nc2nnc(-c3ccco3)n2-c2c(OC)cccc2OC)CN(c2ncc(F)cn2)C1` (single isomer, unassigned) [Example 156.0, Ethyl (3R,5S)-5-((4-(2,6-Dimethoxyphenyl)-5-(2-furanyl)-4H-1,2,4-triazol-3-yl)sulfamoyl)-1-(5-fluoro-2-pyrimidinyl)-3-piperidinecarboxylate or Ethyl (3S,5R)-5-((4-(2,6-dimethoxyphenyl-5-(2-furanyl)-4H-1,2,4-triazol-3-yl)sulfamoyl)-1-(5-fluoro-2-pyrimidinyl)-3-piperidinecarboxylate], for which the EC50 was 0.36 nM.

On to `COc1cccc(OC)c1-n1c(NS(=O)(=O)[C@@H](C)[C@H](O)c2ccc(Cl)cc2S(C)(=O)=O)nnc1-c1ccc(C)o1` (single isomer, unassigned) [Example 157.0, (1R,2S)-1-(4-Chloro-2-(methylsulfonyl)phenyl)-N-(4-(2,6-dimethoxyphenyl)-5-(5-methyl-2-furanyl)-4H-1,2,4-triazol-3-yl)-1-hydroxy-2-propanesulfonamide or (1S,2R)-1-(4-chloro-2-(methylsulfonyl)phenyl)-N-(4-(2,6-dimethoxyphenyl)-5-(5-methyl-2-furanyl)-4H-1,2,4-triazol-3-yl)-1-hydroxy-2-propanesulfonamide], for which the concentration for a half-maximal effect (EC50) worked out at 0.39 nM.

As to `COc1cccc(OC)c1-n1c(NS(=O)(=O)[C@H]2C[C@@H](C(=O)N3CCC3)CN(c3ncc(F)cn3)C2)nnc1-c1ccco1` (single isomer, unassigned) [Example 162.0, (3R,5S)-5-(1-Azetidinylcarbonyl)-N-(4-(2,6-dimethoxyphenyl)-5-(2-furanyl)-4H-1,2,4-triazol-3-yl)-1-(5-fluoro-2-pyrimidinyl)-3-piperidinesulfonamide or (3S,5R)-5-(1-azetidinylcarbonyl)-N-(4-(2,6-dimethoxyphenyl)-5-(2-furanyl)-4H-1,2,4-triazol-3-yl)-1-(5-fluoro-2-pyrimidinyl)-3-piperidinesulfonamide], the 50% effective concentration (EC50) amounted to 0.68 nM.

As to `COc1cccc(OC)c1-n1c(NS(=O)(=O)CCN2C(=O)N(C)CC[C@@H]2C)nnc1-c1ccc(C)o1` (single isomer, unassigned) [Example 164.0, N-(4-(2,6-Dimethoxyphenyl)-5-(5-methyl-2-furanyl)-4H-1,2,4-triazol-3-yl)-2-((6S)-3,6-dimethyl-2-oxotetrahydro-1(2H)-pyrimidinyl)ethanesulfonamide or N-(4-(2,6-dimethoxyphenyl)-5-(5-methyl-2-furanyl)-4H-1,2,4-triazol-3-yl)-2-((6R)-3,6-dimethyl-2-oxotetrahydro-1(2H)-pyrimidinyl)ethanesulfonamide], the 50% effective concentration (EC50) is 0.74 nM.

In the case of `COc1cccc(OC)c1-n1c(NS(=O)(=O)[C@H]2C[C@@H](O)CN(c3ncc(F)cn3)C2)nnc1-c1ccco1` (single isomer, unassigned) [Example 167.0, (3S,5R)—N-(4-(2,6-Dimethoxyphenyl)-5-(2-furanyl)-4H-1,2,4-triazol-3-yl)-1-(5-fluoro-2-pyrimidinyl)-5-hydroxy-3-piperidinesulfonamide or (3R,5S)—N-(4-(2,6-dimethoxyphenyl)-5-(2-furanyl)-4H-1,2,4-triazol-3-yl)-1-(5-fluoro-2-pyrimidinyl)-5-hydroxy-3-piperidinesulfonamide], the EC50 amounted to 0.94 nM.

As for `COc1cccc(OC)c1-n1c(NS(=O)(=O)CCN2C(=O)[C@@H](C)C[C@]2(C)C#N)nnc1-c1ccco1` (single isomer, unassigned) [Example 168.0], the concentration for a half-maximal effect (EC50) worked out at 0.97 nM.
